Experimental data from US9789116B2, “Compositions and methods of modulating short-chain dehydrogenase activity” (CASE WESTERN RESERVE UNIVERSITY, priority 2013, dated 2017).
“Also recorded” adds a separate entry of the source.

Key:
FVB mice [1] = assay: Liver regeneration after partial hepatectomy, FVB mice; assay type: in vivo, mouse
C57BL/6J female mice [2] = assay: Survival following acetaminophen (Tylenol) overdose; assay type: in vivo, mouse;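 also: control animals received vehicle only, given on a once or twice daily schedule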
A549 cells = assay: PGE2 levels in medium of IL1-beta stimulated A549 cells; assay type: cell-based; details: IL1-beta 23 hours, compound added for the last 5 hours
lethally irradiated mice = assay: Blood and bone marrow recovery after transplant with 500,000 donor marrow cells; assay type: in vivo, mouse
FVB mice [3] = assay: Toxicity study in FVB mice, daily weights; assay type: in vivo, mouse; details: 5 mg/kg IP twice daily for 21 days, N=6
C57BL/6J mice = assay: Bone marrow of C57BL/6J mice treated in vivo; parameters: species or system mouse; details: IP 5 mg/kg or 20 mg/kg
Source text: Experimental conditions are noted on the figure.

C57BL/6J female mice [4] = assay: Survival after whole body irradiation; assay type: in vivo, mouse; details: 7 Gy, 5 mg/kg IP daily for 7 doses, cohort of 3

Compound: CCCC[S+]([O-])c1sc2nc(-c3cccs3)cc(-c3ccccc3)c2c1N (stereo not shown) [SW033291, 2-(butylsulfinyl)-4-phenyl-6-(thiophen-2-yl)thieno[2,3-b]pyridin-3-amine]
- BrdU positive (S-phase) cells in liver (FVB mice [1]; post-operative day 2): clear increase in numbers of BrdU positive cells
- increase in median S-phase cells (FVB mice [1]; post-operative day 2, P<0.05): greater than 2 fold
- greater liver weight than control mice (FVB mice [1]; post-operative day 7): approximately 25%
- Number of mice surviving (C57BL/6J female mice [2]; 5 mg/kg 1 dose/daily, first dose immediately after Tylenol, 16 hr, cohort of 6): 6
- Number of mice surviving (C57BL/6J female mice [2]; 5 mg/kg 1 dose/daily, first dose immediately after Tylenol, 24 hrs, cohort of 6): 6
- Number of mice surviving (C57BL/6J female mice [2]; 5 mg/kg 2 dose/daily, first dose immediately after Tylenol, 16 hr, cohort of 6): 6
- Number of mice surviving (C57BL/6J female mice [2]; 5 mg/kg 2 dose/daily, first dose immediately after Tylenol, 24 hrs, cohort of 6): 6
- Number of mice surviving (C57BL/6J female mice [2]; 5 mg/kg 2 dose/daily, first dose immediately after Tylenol, 48 hrs, cohort of 6): 3
- Number of mice surviving (C57BL/6J female mice [2]; 5 mg/kg 2 dose/daily, first dose immediately after Tylenol, 64 hrs, cohort of 6): 3
- Number of mice surviving (C57BL/6J female mice [2]; 5 mg/kg 2 dose/daily, first dose immediately after Tylenol, 72 hrs, cohort of 6): 3
- Number of mice surviving (C57BL/6J female mice [2]; 5 mg/kg 2 dose/daily, first dose immediately after Tylenol, 88 hr, cohort of 6): 3
- Number of mice surviving (C57BL/6J female mice [2]; 5 mg/kg 2 dose/daily, first dose immediately after Tylenol, 96 hr, cohort of 6): 3
- Number of mice surviving (C57BL/6J female mice [2]; 5 mg/kg 2 dose/daily, first dose immediately after Tylenol, 112 hr, cohort of 6): 3
- Number of mice surviving (C57BL/6J female mice [2]; 5 mg/kg 2 dose/daily, first dose immediately after Tylenol, 120 hr, cohort of 6): 3
- survival versus control mice (C57BL/6J female mice [2]; 5 mg/kg IP begun immediately following acetaminophen, once or twice daily, through 120 hours): No difference
- protection from acetaminophen lethality (C57BL/6J female mice [2]; 5 mg/kg IP bid beginning 48 hours prior to acetaminophen, 9 doses): protects from the lethal hepatotoxicity of acetaminophen
- Number of mice surviving (C57BL/6J female mice [2]; 5 mg/kg bid from 3 hours prior to acetaminophen, 6 doses, 16 hr, cohort of 6): 6
- Number of mice surviving (C57BL/6J female mice [2]; 5 mg/kg bid from 3 hours prior to acetaminophen, 6 doses, 24 hrs, cohort of 6): 5
- Number of mice surviving (C57BL/6J female mice [2]; 5 mg/kg bid from 3 hours prior to acetaminophen, 6 doses, 48 hrs, cohort of 6): 3
- Number of mice surviving (C57BL/6J female mice [2]; 5 mg/kg bid from 3 hours prior to acetaminophen, 6 doses, 64 hrs, cohort of 6): 3
- Number of mice surviving (C57BL/6J female mice [2]; 5 mg/kg bid from 3 hours prior to acetaminophen, 6 doses, 72 hrs, cohort of 6): 3
- Number of mice surviving (C57BL/6J female mice [2]; 5 mg/kg bid from 3 hours prior to acetaminophen, 6 doses, 88 hr, cohort of 6): 3
- Number of mice surviving (C57BL/6J female mice [2]; 5 mg/kg bid from 3 hours prior to acetaminophen, 6 doses, 96 hr, cohort of 6): 3
- Number of mice surviving (C57BL/6J female mice [2]; 5 mg/kg bid from 3 hours prior to acetaminophen, 6 doses, 112 hr, cohort of 6): 3
- Number of mice surviving (C57BL/6J female mice [2]; 5 mg/kg bid from 3 hours prior to acetaminophen, 6 doses, 120 hr, cohort of 6): 3
- Number of mice surviving (C57BL/6J female mice [2]; 5 mg/kg bid from 48 hours prior to acetaminophen, 9 doses, 16 hr, cohort of 12): 12
- Number of mice surviving (C57BL/6J female mice [2]; 5 mg/kg bid from 48 hours prior to acetaminophen, 9 doses, 24 hrs, cohort of 12): 12
- Number of mice surviving (C57BL/6J female mice [2]; 5 mg/kg bid from 48 hours prior to acetaminophen, 9 doses, 40 hrs, cohort of 12): 11
- Number of mice surviving (C57BL/6J female mice [2]; 5 mg/kg bid from 48 hours prior to acetaminophen, 9 doses, 48 hrs, cohort of 12): 10
- Number of mice surviving (C57BL/6J female mice [2]; 5 mg/kg bid from 48 hours prior to acetaminophen, 9 doses, 64 hrs, cohort of 12): 10
- Number of mice surviving (C57BL/6J female mice [2]; 5 mg/kg bid from 48 hours prior to acetaminophen, 9 doses, 72 hrs, cohort of 12): 10
- Number of mice surviving (C57BL/6J female mice [2]; 5 mg/kg bid from 48 hours prior to acetaminophen, 9 doses, 88 hr, cohort of 12): 10
- Number of mice surviving (C57BL/6J female mice [2]; 5 mg/kg bid from 48 hours prior to acetaminophen, 9 doses, 96 hr, cohort of 12): 10
- Number of mice surviving (C57BL/6J female mice [2]; 5 mg/kg bid from 48 hours prior to acetaminophen, 9 doses, 112 hr, cohort of 12): 10
- Number of mice surviving (C57BL/6J female mice [2]; 5 mg/kg bid from 48 hours prior to acetaminophen, 9 doses, 120 hr, cohort of 12): 10
- 15-PGDH activity in cells as reflected in PGE2 levels in medium (A549 cells): clear inhibition of 15-PGDH activity in the cells
- total platelet count (lethally irradiated mice; day 5 after transplant): significantly higher total platelet count
- total white count (lethally irradiated mice; day 5 after transplant): significantly higher total white count
- platelet count (lethally irradiated mice; day 8 after transplant): 77,000 platelets
- neutrophil count (lethally irradiated mice; day 12 after transplant): 332 neutrophils
- total white counts (lethally irradiated mice; day 12 after transplant): significantly higher total white counts; also recorded: significantly greater total white counts
- lymphocyte count (lethally irradiated mice; day 18 after transplant): significantly higher
- neutrophil count (lethally irradiated mice; day 18 after transplant): 835 neutrophils
- platelet counts (lethally irradiated mice; day 18 after transplant): significantly higher platelet counts
- total white count (lethally irradiated mice; day 18 after transplant): significantly higher total white count
- mouse weight gain (FVB mice [3]): no evidence for SW033291 reducing mouse weight
- percent of Sca1+/c-Kit+ cells in lineage negative (SKL) cells (C57BL/6J mice): unchanged
- Number of mice surviving (C57BL/6J female mice [4]; Day 5): 3
- Number of mice surviving (C57BL/6J female mice [4]; Day 6): 3
- Number of mice surviving (C57BL/6J female mice [4]; Day 7): 3
- Number of mice surviving (C57BL/6J female mice [4]; Day 8): 3
- Number of mice surviving (C57BL/6J female mice [4]; Day 9): 3
